Usually bioavailability stands for the share of a dose that reaches the circulation, judged against a reference dose that is usually intravenous.

Data set [1] has as its system pEGFR, pAkt, pErk½ signaling in H508 cells. Briefly: Western blot of pEGFR, pAkt, pErk½ signaling, 2 hour incubation, H508 cells. The format is cell-based. The note with it: 2 hour incubation with EGF, FIG. 20. In general terms: A western blot detects proteins with antibodies after separation by electrophoresis.
The conditions of data set [2]: patients taking Alpelisib; cited from earlier work.
For data set [3] the following is noted: cited from earlier work.

For `Cc1nc(NC(=O)N2CCC[C@H]2C(N)=O)sc1-c1ccnc(C(C)(C)C(F)(F)F)c1` [Alpelisib, (2S)-1-N-[4-methyl-5-[2-(1,1,1-trifluoro-2-methylpropan-2-yl)pyridin-4-yl]-1,3-thiazol-2-yl]pyrrolidine-1,2-dicarboxamide], in data set [1], the pAkt entry was “inhibit pAkt” and the “pEGFR or pErk½ signaling” value was “do not affect”. Also, in data set [2], the “dose dependent benefit from treatment: advantage of 300 mg once daily over 150 mg twice daily” value is reported as 22% and the “dose dependent benefit from treatment: advantage of a 200 mg daily dose over a 100 mg dose” value is on record as 51%.

With `COC(=O)N[C@@H](C)CNc1nccc(-c2cn(C(C)C)nc2-c2cc(Cl)cc(NS(C)(=O)=O)c2F)n1` [Encorafenib, methyl N-[(2S)-1-[[4-[3-[5-chloro-2-fluoro-3-(methanesulfonamido)phenyl]-1-propan-2-ylpyrazol-4-yl]pyrimidin-2-yl]amino]propan-2-yl]carbamate], the “median Tmax” value in data set [3] (after oral administration) is 2 h. In data set [3] (oral administration), the dose absorbed result is recorded as “At least 86%”.

Regarding `CC(=O)Nc1cccc(-n2c(=O)n(C3CC3)c(=O)c3c(Nc4ccc(I)cc4F)n(C)c(=O)c(C)c32)c1` [Trametinib, N-[3-[3-cyclopropyl-5-(2-fluoro-4-iodoanilino)-6,8-dimethyl-2,4,7-trioxopyrido[4,3-d]pyrimidin-1-yl]phenyl]acetamide], in data set [3] (human, in vivo), the Elimination half-life is 93.6 to 115 h. Also, the “peak plasma concentration occurred post-dose (Tmax)” value in data set [3] (oral administration, patients with BRAF V600 mutation-positive melanoma) is 1.5 h. For the same compound, the bioavailability in data set [3] (single 2 mg oral dose) is given as 72%.

The values are drawn from patent publication US12636376B2, “Methods and compositions for use of growth factor antibodies in combination with non-tyrosine targeting kinase inhibitors” (In3Bio Ltd., priority 2019, dated 2026).
